According to US6677277B1, “Substituted sulphonyl amino(thio)carbonyl compounds and their use as herbicides” (Bayer Aktiengesellschaft, priority 1996, dated 2004):

Columns and labels:
Format in all cases: in vivo
[1] = tested on: Matricaria; assay: Pre-emergence test/greenhouse; settings: after three weeks
Procedure: (§1) Pre-emergence Test Solvent: 5 parts by weight of acetone Emulsifier: 1 part by weight of alkylaryl polyglycol ether To produce a suitable preparation of active compound, 1 part by weight of active compound is mixed with the stated amount of solvent, the stated amount of emulsifier is added and the concentrate is diluted with water to the desired concentration. Seeds of the test plants are sown in normal soil. After about 24 hours, the soil is sprayed with the preparation of the active compound in such a way as to apply the particular amounts of active compound desired per unit area The concentration of the spray liquor is chosen so that the particular amounts of active compound desired are applied in 1000 l of water/ha. After three weeks, the degree of damage to the plants is rated in % damage in comparison to the development of the untreated control. The figures denote: [table]

[2] = tested on: Maize; assay: Pre-emergence test/greenhouse; settings: after three weeks
Procedure: as §1

[3] = tested on: Chenopodium; assay: Pre-emergence test/greenhouse; settings: after three weeks
Procedure: as §1

[4] = tested on: Solanum; assay: Pre-emergence test/greenhouse; settings: after three weeks
Procedure: as §1

[5] = tested on: Sorghum; assay: Pre-emergence test/greenhouse; settings: after three weeks
Procedure: as §1

[6] = tested on: Alopecurus; assay: Pre-emergence test/greenhouse; settings: after three weeks
Procedure: as §1

[7] = tested on: Lolium; assay: Pre-emergence test/greenhouse; settings: after three weeks
Procedure: as §1

[8] = tested on: Amaranthus; assay: Pre-emergence test/greenhouse; settings: after three weeks
Procedure: as §1

[9] = tested on: weeds; assay: Pre-emergence test; settings: cf. Tables A-1 to A-5
Procedure: as §1

[10] = tested on: weeds; assay: Post-emergence test; settings: cf. Tables B-1 to B-4
Procedure: as §1, with “Post-emergence” for “Pre-emergence”, “Test plants which have a height” for “Seeds”, “5-15 cm” for “the test plants”, “are” for “are sown in normal soil. After about 24 hours, the soil is”, “area.” for “area”

[11] = tested on: Wheat; assay: Post-emergence test/greenhouse; settings: rated after three weeks vs untreated control
Procedure: as §1, with “Post-emergence” for “Pre-emergence”, “Test plants which have a height” for “Seeds”, “5-15 cm” for “the test plants”, “are” for “are sown in normal soil. After about 24 hours, the soil is”, “area.” for “area”

[12] = tested on: Stellaria; assay: Post-emergence test/greenhouse; settings: rated after three weeks vs untreated control
Procedure: as §1, with “Post-emergence” for “Pre-emergence”, “Test plants which have a height” for “Seeds”, “5-15 cm” for “the test plants”, “are” for “are sown in normal soil. After about 24 hours, the soil is”, “area.” for “area”

[13] = tested on: Solanum; assay: Post-emergence test/greenhouse; settings: post-emergence, rated after three weeks vs untreated control
Procedure: as §1, with “Post-emergence” for “Pre-emergence”, “Test plants which have a height” for “Seeds”, “5-15 cm” for “the test plants”, “are” for “are sown in normal soil. After about 24 hours, the soil is”, “area.” for “area”

[14] = tested on: Ipomoea; assay: Post-emergence test/greenhouse; settings: rated after three weeks vs untreated control
Procedure: as §1, with “Post-emergence” for “Pre-emergence”, “Test plants which have a height” for “Seeds”, “5-15 cm” for “the test plants”, “are” for “are sown in normal soil. After about 24 hours, the soil is”, “area.” for “area”

[15] = tested on: Sorghum; assay: Post-emergence test/greenhouse; settings: post-emergence, rated after three weeks vs untreated control
Procedure: as §1, with “Post-emergence” for “Pre-emergence”, “Test plants which have a height” for “Seeds”, “5-15 cm” for “the test plants”, “are” for “are sown in normal soil. After about 24 hours, the soil is”, “area.” for “area”

[16] = tested on: Xanthium; assay: Post-emergence test/greenhouse; settings: post-emergence, rated after three weeks vs untreated control
Procedure: as §1, with “Post-emergence” for “Pre-emergence”, “Test plants which have a height” for “Seeds”, “5-15 cm” for “the test plants”, “are” for “are sown in normal soil. After about 24 hours, the soil is”, “area.” for “area”

SMILES	% damage, Maize ([2]; 125 g ai./ha) [%]	% damage, Chenopodium ([3]; 125 g ai./ha) [%]	% damage, Solanum ([4]; 125 g ai./ha) [%]	% damage, Sorghum ([5]; 125 g ai./ha) [%]	% damage, Alopecurus ([6]; 125 g ai./ha) [%]	% damage, Lolium ([7]; 125 g ai./ha) [%]	% damage, Amaranthus ([8]; 125 g ai./ha) [%]	activity against weeds [9]	activity against weeds [10]	Wheat, % damage ([11]; 60 g ai./ha) [%]	Stellaria, % damage ([12]; 60 g ai./ha) [%]	Solanum, % damage ([13]; 60 g ai./ha) [%]	Ipomoea, % damage ([14]; 60 g ai./ha)	Sorghum, % damage ([15]; 60 g ai./ha) [%]	Xanthium, % damage ([16]; 60 g ai./ha) [%]	further results
CCOc1nn(C(=O)NS(=O)(=O)c2c(Cl)cccc2SC)c(=O)n1C [Example 1, 5-ethoxy-4-methyl-2-(2-chloro-6-methylthio-phenylsulfonyl-aminocarbonyl)-2,4-dihydro-3H-1,2,4-triazol-3-one]	0	60	100	90	95	70	90	very strong activity								% damage, Matricaria ([1]; 125 g ai./ha): 70%
CCSc1cccc(OC)c1S(=O)(=O)NC(=O)n1nc(CC)n(C)c1=O [Example 8]	0	100	60		100	80	100	very strong activity								
CCSc1cccc(C(F)(F)F)c1S(=O)(=O)NC(=O)n1nc(OC)n(C)c1=O [Example 13]	0	100	100	100	90	90	100	very strong activity	very strong activity	0	95	95	90%	80		% damage, Matricaria ([1]; 125 g ai./ha): 100%
CCSc1cccc(C(F)(F)F)c1S(=O)(=O)NC(=O)n1nc(SC)n(C)c1=O [Example 14]	0	100	100	90	100		70	very strong activity								% damage, Matricaria ([1]; 125 g ai./ha): 100%
COc1nn(C(=O)NS(=O)(=O)c2c(OC(F)(F)F)cccc2SC)c(=O)n1C [Example 32]								very strong activity								% damage, Matricaria ([1]; 30 g ai./ha): 90%; % damage, Maize ([2]; 30 g ai./ha): 5%; % damage, Chenopodium ([3]; 30 g ai./ha): 100%; % damage, Solanum ([4]; 30 g ai./ha): 95%; % damage, Sorghum ([5]; 30 g ai./ha): 90%; % damage, Alopecurus ([6]; 30 g ai./ha): 90%; % damage, Lolium ([7]; 30 g ai./ha): 100%; % damage, Amaranthus ([8]; 30 g ai./ha): 100%
CSc1cccc(OC(F)(F)F)c1S(=O)(=O)NC(=O)n1nc(SC)n(C)c1=O [Example 33]	10	100	100	100	100	100	100	very strong activity								% damage, Matricaria ([1]; 125 g ai./ha): 100%
CCSc1cccc(OC(F)(F)F)c1S(=O)(=O)NC(=O)n1nc(CC)n(C)c1=O [Example 39]									very strong activity	20	90	95	80%	80	95	
CCOc1nn(C(=O)NS(=O)(=O)c2c(SCC)cccc2SCC)c(=O)n1C [Example 43]									very strong activity	20	90	95	95%	70	100	
CCSc1cccc(SCC)c1S(=O)(=O)NC(=O)n1nc(CC)n(C)c1=O [Example 44]									very strong activity	10	80	95	95%	70	100	
CCSc1cccc(SCC)c1S(=O)(=O)NC(=O)n1nc(OC)n(C)c1=O [Example 46]									very strong activity		95	95	9S	70	100	
CCOc1nn(C(=O)NS(=O)(=O)c2c(C)cccc2SC)c(=O)n1C [Example 48]									very strong activity	5	60	90	90%	100	95	
CCSc1cccc(C)c1S(=O)(=O)NC(=O)n1nc(OC)n(C)c1=O [Example 53]									very strong activity							Xanthium, % damage ([16]; 125 g ai./ha): 100%; Wheat, % damage ([11]; 125 g ai./ha): 20%; Stellaria, % damage ([12]; 125 g ai./ha): 90%; Solanum, % damage ([13]; 125 g ai./ha): 59%; Ipomoea, % damage ([14]; 125 g ai./ha): 95%; Sorghum, % damage ([15]; 125 g ai./ha): 95%
COc1cccc(SCCF)c1S(=O)(=O)NC(=O)n1nc(OC)n(C)c1=O [Example 57]		100		100	100	100	100	very strong activity								
CSc1cccc(C(F)(F)F)c1S(=O)(=O)NC(=O)n1nc(SC)n(C)c1=O [Example 62]								very strong activity								% damage, Maize ([2]; 60 g ai./ha): 10%; % damage, Chenopodium ([3]; 60 g ai./ha): 100%; % damage, Solanum ([4]; 60 g ai./ha): 100%; % damage, Sorghum ([5]; 60 g ai./ha): 90%; % damage, Alopecurus ([6]; 60 g ai./ha): 100%; % damage, Lolium ([7]; 60 g ai./ha): 100%; % damage, Amaranthus ([8]; 60 g ai./ha): 100%
CCc1nn(C(=O)NS(=O)(=O)c2c(SC)cccc2C(F)(F)F)c(=O)n1C [Example 63]								very strong activity								% damage, Maize ([2]; 60 g ai./ha): 0%; % damage, Chenopodium ([3]; 60 g ai./ha): 100%; % damage, Solanum ([4]; 60 g ai./ha): 100%; % damage, Sorghum ([5]; 60 g ai./ha): 100%; % damage, Alopecurus ([6]; 60 g ai./ha): 100%; % damage, Lolium ([7]; 60 g ai./ha): 70%; % damage, Amaranthus ([8]; 60 g ai./ha): 100%
